Some test systems named below: LOX IMVI; HCT-116; RXF 393; OVCAR-5; SN12C; OVCAR-8; IGROV-1; HCC 2998; CCRF-CEM; Malme-3M; NCI-H23; SK-MEL-2; SNB-75; SK-MEL-28; UO-31; CAKI-1; ACHN; MCF7; MDA-MB-435.
Common to all, as to experiment: growth of human tumour cells (NCI), 48 h

The structures appear in SMILES notation.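 Step 1: Grow cells in 96-well plates. Step 2: Expose to compound for 48 hours at 5 concentrations. Step 3: Interpolate endpoints linearly; if unreached, use highest concentration. GI50 marks 50% less growth.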 Activity calls are given as the source filed them. Cut-off read from the data, not from the text of the source: active = GI50 up to about 1.1 µM and inactive = higher. Where only a bound is given, the exact number is not on record here.

On to `Cc1nc2cc(Nc3ccccc3C(=O)O)ccc2s1`, for which the GI50 in the assay on LOX IMVI is > 100 µM (inactive); in the assay with HCT-116 it was 90.8 µM (inactive); in the assay with RXF 393, > 100 µM (inactive); in the assay with OVCAR-5 it was > 100 µM (inactive); in the assay on SN12C, 63.4 µM (inactive); in the assay with OVCAR-8, > 100 µM (inactive). Also, the GI50 in the assay with IGROV-1, with HCC 2998, with CCRF-CEM, in the assay with Malme-3M, in the assay with NCI-H23 and with SK-MEL-2 was > 100 µM (inactive) each time. Also, the GI50 with SNB-75 was > 100 µM (inactive); with SK-MEL-28, > 100 µM (inactive); in the assay on UO-31, 34 µM (inactive); with CAKI-1, > 100 µM (inactive); in the assay with ACHN, > 100 µM (inactive).
Consider `CC(C)(C)C1=NN=C2c3ccccc3C(=O)C21` (configuration not stated), for which the GI50 in the assay on LOX IMVI is 41.1 µM (inactive); in the assay with HCT-116 it was > 100 µM (inactive); in the assay on RXF 393, 81.3 µM (inactive); in the assay on OVCAR-5, 51.8 µM (inactive); in the assay on SN12C, 42.6 µM (inactive); in the assay with OVCAR-8, 43.6 µM (inactive). Moreover, the GI50 with IGROV-1 is 56.1 µM (inactive); in the assay with HCC 2998, 4.6 µM (inactive); in the assay with CCRF-CEM, 63.2 µM (inactive); in the assay with Malme-3M, 36.2 µM (inactive); in the assay on NCI-H23 it was 49 µM (inactive); with SK-MEL-2, 39.8 µM (inactive). Further, the GI50 in the assay on SNB-75 is 79.6 µM (inactive); in the assay with MCF7 it was 51.1 µM (inactive); in the assay with SK-MEL-28, 55.8 µM (inactive); with UO-31, 4.78 µM (inactive); with MDA-MB-435 it was 41.6 µM (inactive); in the assay with CAKI-1, 26.4 µM (inactive). Besides, in the assay with ACHN, the GI50 is 43.1 µM (inactive).
In the case of `CC(=O)OC[C@@]12CC[C@H]3C(C)(C)CCC[C@]3(C)[C@H]1C[C@@H](C1=CC(=O)O[C@H]1O)O2`, the GI50 in the assay on LOX IMVI was 1.34 µM (inactive); in the assay on HCT-116, 2.84 µM (inactive); in the assay with OVCAR-5 it was 19.7 µM (inactive); in the assay on SN12C it was 3.55 µM (inactive); in the assay with OVCAR-8, 3.18 µM (inactive); with IGROV-1, 2.55 µM (inactive). Further, the GI50 in the assay with HCC 2998 was 1.61 µM (inactive); in the assay with CCRF-CEM, 1.24 µM (inactive); in the assay on NCI-H23 it was 2.04 µM (inactive); in the assay on SK-MEL-2 it was 2.15 µM (inactive); in the assay with SNB-75 it was 3.74 µM (inactive); with MCF7, 1.58 µM (inactive). Further, the GI50 is 1.77 µM (inactive) in the assay with SK-MEL-28; 2.1 µM (inactive) in the assay with UO-31; 2.13 µM (inactive) with MDA-MB-435; 2.64 µM (inactive) in the assay with CAKI-1; 2.54 µM (inactive) in the assay on ACHN.
As for `N#Cc1cc(C#N)c(Cl)nc1N`, the GI50 in the assay with LOX IMVI, in the assay on HCT-116, with RXF 393, in the assay with SN12C, in the assay on OVCAR-8 and in the assay on IGROV-1 was > 10 µM (inactive) throughout. Moreover, the GI50 with HCC 2998, in the assay with CCRF-CEM, in the assay with Malme-3M, in the assay on NCI-H23, in the assay on SK-MEL-2 and in the assay on SNB-75 was > 10 µM (inactive) in each case. Moreover, the GI50 with MCF7 was > 10 µM (inactive); with SK-MEL-28, > 10 µM (inactive); in the assay with UO-31, 0.0323 µM (active); in the assay on MDA-MB-435, > 10 µM (inactive); with ACHN, > 10 µM (inactive).
Turning to `Cc1csc(NNC(=O)Nc2ccccc2)n1`, the GI50 in the assay with LOX IMVI, in the assay with HCT-116, in the assay with RXF 393, with OVCAR-5, with SN12C and with OVCAR-8 was > 100 µM (inactive) throughout. Moreover, the GI50 in the assay on IGROV-1, in the assay on HCC 2998, in the assay with CCRF-CEM, with Malme-3M, with NCI-H23 and in the assay on SK-MEL-2 was > 100 µM (inactive) in each case. Further, the GI50 in the assay with SNB-75 is > 100 µM (inactive); with MCF7, > 100 µM (inactive); with SK-MEL-28, > 100 µM (inactive); in the assay with UO-31, 45.7 µM (inactive); in the assay with MDA-MB-435, > 100 µM (inactive); in the assay on CAKI-1, > 100 µM (inactive). Moreover, the GI50 in the assay on ACHN was > 100 µM (inactive).
In the case of `O=c1[nH]c(=O)c2c3n(cc2[nH]1)CCCCC3`, the GI50 with LOX IMVI, with HCT-116, in the assay on RXF 393, in the assay on OVCAR-5, in the assay with SN12C and with OVCAR-8 was > 100 µM (inactive) throughout. Besides, the GI50 in the assay with IGROV-1, with HCC 2998, with CCRF-CEM, in the assay on Malme-3M, in the assay on NCI-H23 and in the assay on SNB-75 was > 100 µM (inactive) in each case. Further, the GI50 in the assay on MCF7, in the assay with SK-MEL-28, with UO-31, in the assay with MDA-MB-435, in the assay on CAKI-1 and in the assay on ACHN was > 100 µM (inactive) in each case.
For the compound `CCCC(=O)/C=C/S/C=C/C(=O)CCC`, the GI50 in the assay with LOX IMVI is 2.38 µM (inactive); with HCT-116, 1.65 µM (inactive); with RXF 393, 4.9 µM (inactive); in the assay with OVCAR-5, 3.41 µM (inactive); with SN12C, 13.2 µM (inactive); in the assay on OVCAR-8 it was 2.65 µM (inactive). The GI50 was 21.6 µM (inactive) in the assay with IGROV-1; 7.28 µM (inactive) in the assay with Malme-3M; 2.84 µM (inactive) in the assay with NCI-H23; 27.5 µM (inactive) in the assay with SK-MEL-2; 27.2 µM (inactive) in the assay with SNB-75; 28.2 µM (inactive) in the assay with MCF7. Also, the GI50 with SK-MEL-28 was 3.96 µM (inactive); in the assay with UO-31, 4.13 µM (inactive); with MDA-MB-435 it was 5.46 µM (inactive); in the assay with CAKI-1, 2.86 µM (inactive); in the assay with ACHN, 2.7 µM (inactive).
Take `O=C1CC(c2ccccc2)n2cccc21` (configuration not stated): the GI50 in the assay with LOX IMVI, with HCT-116, in the assay on RXF 393, in the assay on OVCAR-5, in the assay with SN12C and in the assay on OVCAR-8 was > 100 µM (inactive) in each case. For the same compound, the GI50 with IGROV-1, with HCC 2998, in the assay with CCRF-CEM, in the assay with NCI-H23, with SK-MEL-2 and in the assay with SNB-75 was > 100 µM (inactive) each time. The GI50 with MCF7 is > 100 µM (inactive); in the assay on SK-MEL-28, > 100 µM (inactive); in the assay with UO-31 it was 67.6 µM (inactive); with MDA-MB-435 it was > 100 µM (inactive); in the assay on CAKI-1 it was > 100 µM (inactive); in the assay on ACHN, > 100 µM (inactive).

Source of the values: ChEMBL document CHEMBL1201862, “PubChem BioAssay data set” (2004).
